In PMC4727767, “Synthesis and In Vitro Biological Evaluation of 1,3,4-Oxadiazol-2(3H)-one and Tetrahydropyridazine-3,6-dione Derivatives of Fatty Acids” (Scientia Pharmaceutica, 2015):

What was measured:
Format in all cases: cell-based
[1] = test system: KCL-22 (Lymphoblastoid) cell line; assay: MTT cytotoxicity assay, KCL-22; settings: Homo sapiens, growth inhibition by 50% after 48 hr treatment
Description: (§1) The newly synthesized compounds, 3a–d and 6a–c, combined the benefits of the aforementioned 1,3,4-oxadiazol-2(3H)-one and tetrahydropyridazine-3,6-dione moieties with their fatty acid substituent to give a new scaffold. To check the anticancer potency, the compounds 3a–d and 6a–c were screened in vitro for cytotoxicity against MDA-MB-231 (Breast), KCL-22 (Lymphoblastoid), and HeLa (cervical) cell lines, while PBMC (peripheral blood mononuclear cells) were used as a normal cell. Doxorubicin and 5-Fluorouracil were used as standard cytotoxic drugs. A period of 48 hours of drug exposure was chosen to test cytotoxicity. The MTT cell viability assay based on the conversion of the soluble yellowish MTT to the insoluble purple formazan crystal by active mitochondrial […] of living cells was used for the measurement of cell proliferation. The inhibitory concentration (IC50) of 3a–d and 6a–c compounds were screened against the MDA-MB-231, KCL-22, and HeLa cell lines as given in Table 1. The effect of standard drugs (Doxorubicin and 5-Fluorouracil) on the MDA-MB-231, KCL-22, and HeLa cell lines, and PBMC are represented in Fig. 4.
(§2) The MDA-MB-231, KCL-22, and HeLa cell lines were maintained in RPMI 1640 (Sigma Aldrich, USA) culture medium supplemented with 10% heat-inactivated fetal calf serum (Sigma Aldrich, USA), and antibiotic antimycotic solution (Sigma Aldrich, USA).
(§3) The cells were plated at a density of (5×10^4 / well) in 96-well plates and cultured for 24 hours at 37°C. The cytotoxicity of compounds was determined by the MTT assay which involves the percentage viability of a cell in response to variable doses of compounds. After incubation for 48 hours, cell proliferation was measured by adding 20 μL of MTT dye (5 mg/mL in phosphate-buffered saline) per well. The plates were incubated for 4 hours more at 37°C in a humidified chamber containing 5% CO2. Active mitochondrial dehydrogenases of living cells reduced the yellow tetrazolium salt (dye) to an insoluble purple formazan crystal. Formazan crystals formed due to the reduction of tetrazoline dye by viable cells in each well which were dissolved in 150 μL dimethyl sulfoxide, and absorbance was read at 570 nm using a plate reader (Bio-Rad). The percentage of inhibition of cell viability was determined with reference to the untreated control. To determine the IC50 value, a linear regression analysis method was used.

[2] = test system: PBMC (peripheral blood mononuclear cells); assay: MTT cytotoxicity assay, normal cells PBMC; settings: 48 hr treatment
Description: as §1
Fresh blood ([…]) was provided by the Blood Bank JNMC AMU, Aligarh. After dilution with the same volume of PBS, the diluted blood sample was layered on the Ficoll-Histopaque (Sigma Aldrich, USA). The mixture was centrifuged at 400×g for 30 min at 20–22°C followed by separation of the lymphocyte layer. Then the lymphocyte layer was washed and pelleted down with three volumes of PBS twice and resuspended with RPMI-1640 media with antibiotic and antimycotic solution 10%, v/v fetal calf serum (FCS).
as §3

[3] = test system: MDA-MB-231 (Breast) cell line; assay: MTT cytotoxicity assay, MDA-MB-231; settings: Homo sapiens, growth inhibition by 50% after 48 hr treatment
Description: as §1, §2, §3

[4] = test system: HeLa (cervical) cell line; assay: MTT cytotoxicity assay, HeLa; settings: Homo sapiens, growth inhibition by 50% after 48 hr treatment
Description: as §1, §2, §3

## CCCCCCCC/C=C\CCCCCCCc1n[nH]c(=O)o1 [3b, 5-[(8Z)-Heptadec-8-en-1-yl]-1,3,4-oxadiazol-2(3H)-one]
[1]
  IC50: 13.6 ± 1.3 µM
[2]
  IC50: > 50 µM
[3]
  IC50: 9.3 ± 1.3 µM
[4]
  IC50: 12.3 ± 2.4 µM

## C=CCCCCCCCCc1n[nH]c(=O)o1 [3a, 5-(Dec-9-en-1-yl)-1,3,4-oxadiazol-2(3H)-one]
[1]
  IC50: 15.5 ± 1.8 µM
[2]
  IC50: 39.7 ± 1.4 µM
[3]
  IC50: 12.3 ± 1.6 µM
[4]
  IC50: 17.1 ± 2.1 µM

## CCCCCC[C@@H](O)C/C=C\CCCCCCCc1n[nH]c(=O)o1 [3c, 5-[(8Z,11R)-11-Hydroxyheptadec-8-en-1-yl]-1,3,4-oxadiazol-2(3H)-one]
[1]
  IC50: 8.3 ± 1.2 µM
[2]
  IC50: 46.3 ± 1.3 µM
[3]
  IC50: 6.3 ± 1.1 µM
[4]
  IC50: 9.6 ± 1.2 µM

## CCCCCCCCCCCCCCCC(=O)N1NC(=O)CCC1=O [6c, 1-Hexadecanoyltetrahydropyridazine-3,6-dione]
[1]
  IC50: 17.6 ± 2.2 µM
[2]
  IC50: 43.6 ± 1.4 µM
[3]
  IC50: 25.7 ± 1.4 µM
[4]
  IC50: 21.2 ± 1.6 µM

## CCCCCCCCCCCCCCCCCc1n[nH]c(=O)o1 [3d, 5-Heptadecyl-1,3,4-oxadiazol-2(3H)-one]
[1]
  IC50: 11.8 ± 1.6 µM
[2]
  IC50: 41.4 ± 1.4 µM
[3]
  IC50: 15.4 ± 1.8 µM
[4]
  IC50: 26.2 ± 1.5 µM

## CCCCCCCC/C=C\CCCCCCCC(=O)N1NC(=O)CCC1=O [6b, 1-[(9Z)-Octadec-9-enoyl]tetrahydropyridazine-3,6-dione]
[1]
  IC50: 8.1 ± 1.4 µM
[2]
  IC50: 43.2 ± 1.5 µM
[3]
  IC50: 11.1 ± 1.8 µM
[4]
  IC50: 13.4 ± 2.4 µM

## O=c1[nH]cc(F)c(=O)[nH]1 [5-Fluorouracil, reference compound]
[1]
  IC50: 2.52 ± 1 µM
[2]
  IC50: 11.1 ± 2.3 µM
[3]
  IC50: 2.42 ± 0.09 µM
[4]
  IC50: 2.18 ± 0.8 µM

## C=CCCCCCCCCC(=O)N1NC(=O)CCC1=O [6a, 1-(Undec-10-enoyl)tetrahydropyridazine-3,6-dione]
[1]
  IC50: 16.4 ± 2.1 µM
[2]
  IC50: 44.8 ± 1.3 µM
[3]
  IC50: 18.9 ± 2.2 µM
[4]
  IC50: 19.3 ± 1.4 µM

## COc1cccc2c1C(=O)c1c(O)c3c(c(O)c1C2=O)C[C@@](O)(C(=O)CO)C[C@@H]3O[C@H]1C[C@H](N)[C@H](O)[C@H](C)O1 [Doxorubicin, reference compound]
[1]
  IC50: 1.1 ± 0.08 µM
[2]
  IC50: 9.39 ± 1.9 µM
[3]
  IC50: 1.6 ± 0.09 µM
[4]
  IC50: 1.9 ± 0.09 µM
